Experimental data reported in patent US5830910A (priority 1995, dated 1998).

Tests used:
[1] = tested on: cultured hippocampal neurons; assay: calcium ionophore A23187 neurotoxicity; assay type: cell-based, rat
Excerpt: (§1) Dissociated embryonic rat hippocampal cell cultures were established and maintained. All procedures conformed with the NIH Guide for the Care and Use of Laboratory Animals and were approved by the University of Kentucky Animal Care and Use Committee. Cultures were maintained on a polyethyleneimine-coated substrate in plastic 35-mm dishes or 96 wall plates (for cell survival studies) or glass-bottom 35-mm dishes (for [Ca^2+ ]i imaging studies). The cell density was ^~ 70-100 cells/mm^2. Cells were maintained in Eagle's minimum essential medium supplemented 10% with fetal bovine serum and containing 20 mM sodium pyruvate. […] Aβ25-35 (Bachem, lot ZJ744) and Aβ1-40 (Bachem, lot ZK600) were stored in the lyophilized form, and stocks were prepared immediately before use by dissolving the peptide at a concentration of 1 mM in sterile distilled water. […] Glutamate and colchicine (Sigma) were prepared as 200-500x stocks in saline. Cytochalasins D and E (Sigma) and calcium ionophore 4-bromo-A23187 (Calbiochem) were prepared as 500x stocks in dimethyl sulfoxide. Vitamin E (α-tocopherol; Sigma) was prepared as a 500x stock in ethanol. Nordihydroguaiaretic acid and FeSo4 were prepared as 500x stocks in sterile water.
(§2) Neuronal survival was quantified by counting viable neurons in the same microscope fields (10x objective) immediately before experimental treatment and at time points after treatment. In addition, cells were grown in 96-well plates and Alamar blue fluorescence (Alamar Laboratories)was quantified by using a fluorescence plate reader. Alamar Blue is a non-fluorescent substrate that, after reduction by cell metabolites, becomes fluorescent. […] Viability of the remaining neurons was assessed by morphological criteria. […] Survival values were expressed as percentages of the initial number of neurons present before experimental treatment. […]
FIG. 7. Cultures were pretreated for 1 h with 0.2% dimethylsulfoxide (control) or 100 nM cytochalasin D. Calcium ionophore A23187 was then added at the indicated concentrations and neuronal survival was assessed 8 h later. […]

[2] = tested on: cultured hippocampal neurons; assay: hydrogen peroxide neurotoxicity; assay type: cell-based, rat
Excerpt: as §1
Neuronal survival was quantified by counting viable neurons in the same microscope fields (10x objective) immediately before experimental treatment and at time points after treatment. In addition, cells were grown in 96-well plates and Alamar blue fluorescence (Alamar Laboratories)was quantified by using a fluorescence plate reader. Alamar Blue is a non-fluorescent substrate that, after reduction by cell metabolites, becomes fluorescent. […] Viability of the remaining neurons was assessed by morphological criteria. Neutrons with intact neurites of uniform diameter and a soma with a smooth, round appearance were considered viable, whereas neurons with fragmented neurites and a vacuolated or swollen soma were considered nonviable. Survival values were expressed as percentages of the initial number of neurons present before experimental treatment. Statistical comparisons were made using ANOVA and Scheffe post-hoc tests for pairwise comparisons.
FIG. 15. […] Cultures were pretreated for 1 h with vehicle (Control), 100 nM cytochalasin D (CyD), or 50 μg/ml vitamin E (vE) and then exposed for 20 h to the indicated concentrations of hydrogen peroxide. Data are mean and SEM values of determinations made in four separate cultures.

[3] = tested on: cultured hippocampal neurons; assay: iron (FeSO4) neurotoxicity; assay type: cell-based, rat; details: 50 μg/ml vitamin E or 2 μM NDGA, 1 h preincubation
Excerpt: as §1
(§3) Neuronal survival was quantified by counting viable neurons in the same microscope fields (10x objective) immediately before experimental treatment and at time points after treatment. In addition, cells were grown in 96-well plates and Alamar blue fluorescence (Alamar Laboratories)was quantified by using a fluorescence plate reader. Alamar Blue is a non-fluorescent substrate that, after reduction by cell metabolites, becomes fluorescent. Usually neurons that died in the time intervals (20-48 h) between examination points were absent. Viability of the remaining neurons was assessed by morphological criteria. Neutrons with intact neurites of uniform diameter and a soma with a smooth, round appearance were considered viable, whereas neurons with fragmented neurites and a vacuolated or swollen soma were considered nonviable. Survival values were expressed as percentages of the initial number of neurons present before experimental treatment. Statistical comparisons were made using ANOVA and Scheffe post-hoc tests for pairwise comparisons.
FIG. 8. Cultures were preincubated 1 h in the presence of 0.5% dimethylsulfoxide (control), 100 nM cytochalasin D, 50 μg/ml vitamin E (VitE), or 2 μM nordihydroguairetic acid (NDGA). Cultures were then exposed for 6 h to the indicated concentrations of FeSO4 and neuronal survival was quantified. Values represent the means and SEM of determinations made in four separate cultures. *P<0.001 compared to value for cultures exposed to 100 μM FeSO4 alone.

[4] = tested on: cultured hippocampal neurons; assay type: cell-based, rat; details: for neurotoxicity, preliminary characterization: 48-h period, added in soluble form
Excerpt: as §1, §3
FIG. 12. (A) Cultures were pretreated for 1 h with vehicle 0.2% dimethyl sulfoxide (Control) or 100 nM cytochalasin D (CyD) and were exposed to the indicated concentrations of Aβ25-35 for 48 h. Data are mean and SEM values of determinations made in four separate cultures.
(B) Cultures were pretreated for 1 h with the indicated concentrations of cytochalasin D and then exposed to 50 μM Aβ25-35; parallel cultures were exposed to cytochalasin D alone (Control) . Data are mean and SEM values of determinations made in four separate cultures.
FIG. 14. Cultures were exposed to 100 nM colchicine; 50 μM Aβ; 100 nM colchicine plus 50 μM Aβ; 100 nM cytochalasin E (CyE) plus Aβ (colchicine and cytochalasin E were added 1 h before Aβ); neuronal survival was assessed 48 h later. Data are mean and SEM values of determinations made in four separate cultures. *p<0.01, compared with values for control or colchicine alone. **p<0.01, compared with value for cultures exposed to Aβ alone.

[5] = aggregation of peptides in culture medium; assay type: physicochemical
Excerpt: as §1

[6] = tested on: neuronal [Ca^2+]i in cultured hippocampal neurons; assay: measurement of [Ca^2+]i, fura-2 imaging; assay type: cell-based, rat; details: 50 μM glutamate
[7] = tested on: neuronal [Ca^2+]i in cultured hippocampal neurons; assay: measurement of [Ca^2+]i, fura-2 imaging; assay type: cell-based, rat; details: 50 μM Aβ
Excerpt: as §1
Fluorescence ratio imaging of the Ca^2+ indicator dye fura-2 was used to quantify [Ca^2+ ]i in neuronal somata. Cells were incubated for 30-40 min in the presence of 2 μM acetoxymethyl ester form of the [Ca^2+ ]i indicator dye fura-2 and were then washed twice (2 ml/wash) with fresh medium and allowed to incubate at least 40 min before imaging. Immediately before imaging, the normal culture medium was replaced with Hanks' balanced saline solution (GIBCO) containing 10 mM HEPES buffer and 10 mM of glucose. Cells were imaged using a Zeiss Attofluor system with a oil objective or Quantex system with a 40x oil objective. The ratio of the fluorescence emission using two different excitation wavelengths (334 and 380 nm) was used to determine [Ca^2+ ]i. The system was calibrated using solutions containing either no Ca^2+ or a saturating level of Ca^2+ (1 mM) according to the following formula: [Ca^2+ ]i =KD [(R-Rmin) / (Rmax -R)] (F0 /FS). Values represent the average [Ca^2+ ]i in the neuronal cell body. Experimental treatments were added to the bathing medium by dilution from 100-500x stocks.
(A) Cultures were pretreated for 1 hr with 100 nM cytochalasin D and then [Ca^2+ ]i in neurons was monitored prior to and following exposure to 50 μM glutamate. The records represent the mean [Ca^2+ ]i in 8-12 neurons. Similar results were obtained in 4 separate experiments.
(B) Aβ-induced potentiation of [Ca^2+ ]i response to glutamate is abrogated by cytochalasin D. Cultures were left untreated (Control) or were exposed to 20 μM Aβ25-35 for 6 hr or cytochalasin D plus Aβ25-35 for 6 hr. The [Ca^2+ ]i was then monitored prior to following exposure to 50 μM glutamate. Values represent the means of 8-14 neurons. Similar results were obtained in 3 separate experiments.
(C) Cultures were pretreated for 3 hr with 50 μM Aβ alone or in combination with 100 nM cytochalasin D. The [Ca^2+ ]i in neurons was then monitored prior to and following exposure to 50 mM KCl. Values represent the mean of 14-23 neurons. Similar results were obtained in a separate experiment.
(D) Cultures were pretreated for 1 h with 100 nM cytochalasin D. The [Ca^2+ ]i in neurons was measured immediately prior to, and at 5 min following, exposure to the indicated concentrations of glutamate. Values represent the means and SEM of determinations made in 17-26 neurons. *P<0.05 (10 μM glutamate), P<0.02 (50 μM glutamate), P<0.01 (100 μAM glutamate) compared to corresponding control values.
FIG. 9. Cultures were pretreated for 3 h with vehicle (control) or 10 μM jasplakinolide. The [Ca^2+ ]i was monitored prior to and following exposure to 50 μM glutamate. Values represent the mean of determinations made in 10-12 neurons. Similar results were obtained in two additional experiments.
FIG. 10. […]

[8] = tested on: cultured hippocampal neurons; assay: cells; assay type: cell-based, rat
Excerpt: as §1, §3
Values represent the means and SEM of 4 separate cultures (cell counts) or 4 culture wells (Alamar blue assay). ^a p<0.05 compared to control value. ^b p<0.001 compound to control value. ^c p<0.01 compared to value for glutamate-treated cultures. ^d p<0.005 compared to value for glutamate-treated cultures. ^e p<0.001 compared to value for Aβ-treated cultures. ^f p<0.001 compared to value for cultures treated with 20 μM glutamate. ^g p<0.001 compared to cultures treated with 50 μM Aβ+20 μM glutamate. n.d. not determined.

[9] = tested on: cultured hippocampal neurons; assay: neurotoxicity of combined exposure to Aβ and glutamate; assay type: cell-based, rat; details: 50 μM Aβ plus 20 μM glutamate, 48 h; compared with either insult alone
Excerpt: Dissociated embryonic rat hippocampal cell cultures were established and maintained. All procedures conformed with the NIH Guide for the Care and Use of Laboratory Animals and were approved by the University of Kentucky Animal Care and Use Committee. Cultures were maintained on a polyethyleneimine-coated substrate in plastic 35-mm dishes or 96 wall plates (for cell survival studies) or glass-bottom 35-mm dishes (for [Ca^2+ ]i imaging studies). The cell density was ^~ 70-100 cells/mm^2. Cells were maintained in Eagle's minimum essential medium supplemented 10% with fetal bovine serum and containing 20 mM sodium pyruvate. […]
as §2, with “reader.” for “reader. Alamar Blue is a non-fluorescent substrate that, after reduction by cell metabolites, becomes fluorescent.”
FIG. 13. […] Neuronal survival was assessed 48 h after treatment. […]

Compound: CNc1ccc2oc(C[C@H]3O[C@@]4(CC[C@H]3C)O[C@H]([C@H](C)C(=O)c3ccc[nH]3)[C@H](C)C[C@H]4C)nc2c1C(=O)O [A23187]
- neurons killed ([1]; 1 μM): essentially all neurons being killed
- neuronal survival ([1]; 100-1000 nM): concentration-dependent reduction in neuronal survival

Compound: OO [Hydrogen peroxide, hydrogen peroxide, reference compound]
- neuronal survival ([2]; 20-h exposure): concentration-dependent reduction in neuronal survival

Compound: Cc1c(C)c2c(c(C)c1O)CCC(C)(CCCC(C)CCCC(C)CCCC(C)C)O2 (stereo not drawn) [Vitamin E, α-tocopherol, reference compound]
- effect on neurotoxicity of iron [3]: completely blocked
- effect on neurotoxicity of hydrogen peroxide ([2]; 50 μg/ml, 1 h pretreatment, 20 h): largely prevented

Compound: Aβ1-40: Aβ1-40 (Bachem, lot ZK600), amyloid β-peptide [reference compound]
- neurotoxicity, preliminary characterization [4]: progressively killed neurons
- aggregation in culture medium [5]: aggregated rapidly

Compound: Aβ25-35: Aβ25-35 (Bachem, lot ZJ744), amyloid β-peptide fragment (GSNKGAIIGLM; Amyloid-beta protein 42; UniProt P05067 696-706, looked up, fragment) [reference compound]
- [Ca^2+]i reached after glutamate in Aβ-pretreated cultures ([6]; Aβ pretreatment 3 h): > 1,500 nM
- [Ca^2+]i reached after glutamate in Aβ-pretreated cultures ([6]; Aβ pretreatment 3 hr): over 1 μM
- rest [Ca^2+]i ([7]; 3 h): ~ 280 nM
- rest [Ca^2+]i ([7]; 6 h): ~ 440 nM
- neuronal survival in cultures exposed to Aβ25-35 ([4]; 50 μM, 24 hr): less than 50 % of control values
- neuronal survival upon exposure to Aβ25-35 ([4]; 24-h incubation): concentration-dependent reduction in neuronal survival
- neurotoxicity, preliminary characterization [4]: progressively killed neurons
- aggregation in culture medium [5]: aggregated rapidly
- Neuron Survival (% of control), Alamar Blue Assay ([8]; 50 μM Aβ + 20 μM Glutamate): 24 ± 0.8 % of control
- Neuron Survival (% of control), Alamar Blue Assay ([8]; 50 μM, alone): 47 ± 3.5 % of control
- neuronal death on combined exposure to Aβ and glutamate [9]: significantly more neuronal death
